Results on 14 compounds are retold here after PubChem BioAssay (NCI).

The structures appear in SMILES notation.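 1) Cells in 96-well plates. 2) Compound, 48 h, 5 concentrations. 3) Linear interpolation between surrounding doses. 4) Unreached endpoint = highest concentration. GI50 = concentration required for 50% inhibition of growth. TGI: concentration producing complete growth inhibition.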 Where only a bound is given, the exact number is not on record here.

What all share (assay): NCI anticancer screen, dose series, 48 h
Experiment [1] concerns A549 NSCLC.
In experiment [2] the test system is CAKI-1 renal.
For experiment [3], the system named is HCT-116 colon.
For experiment [4], the system named is HOP-62 NSCLC.
Experiment [5] has as its system M14 melanoma.
Experiment [6] has as its system NCI-H23 lung.
For experiment [7], the system named is SF-268 CNS.
The subject of experiment [8] is SF-539 CNS.
In experiment [9] the test system is SK-MEL-5 melanoma.
Experiment [10] relates to U251 CNS.

As to `O=C1c2c[n+](Cc3ccccc3)ccc2-c2nc3ccccc3c3ccnc1c23`, the GI50 in [1] is 0.323 µM; in experiment [2], 1.2 µM; in experiment [3] it was 0.422 µM; in experiment [4] it was 0.0569 µM; in experiment [5], 0.208 µM; in experiment [6] it was 0.158 µM. Besides, the GI50 was 0.765 µM in experiment [7], 0.545 µM in experiment [8], 0.439 µM in experiment [9] and 0.541 µM in experiment [10]. Besides, the TGI in experiment [1] stood at 1.99 µM; in [2] it was 9.37 µM; in experiment [3], 1.86 µM; in [4] it was 0.817 µM; in [5], 0.969 µM; in experiment [6], 1.26 µM. Moreover, the TGI in experiment [7] came to 3.66 µM; in [8] it was 1.17 µM; in experiment [9], 1.04 µM; in [10] it was 1.64 µM.

On to `CN(C)Cc1c[nH]c2nc[nH]c(=O)c12`, for which the TGI was greater than 100 µM in experiment [1]; greater than 100 µM in experiment [2]; 51.5 µM in experiment [3]; greater than 100 µM in experiment [4]; greater than 100 µM in experiment [5]; greater than 100 µM in experiment [6]. Besides, the TGI in [7] is greater than 100 µM; in experiment [8] it was 48.9 µM; in [9], greater than 100 µM; in experiment [10] it was greater than 100 µM.

On to `Oc1ccc(Br)cc1C=Nc1ccc(Oc2ccc(N=Cc3cc(Br)ccc3O)cc2)cc1`, for which the TGI in experiment [1], in experiment [2], in [3], in experiment [4], in [5] and in experiment [6] was greater than 19.6 µM throughout. The TGI in [7], in [8], in [9] and in [10] was greater than 19.6 µM each time.

`CC(=O)OC1CCC2(C)C(=CCC3C2CCC2(C)C3CC3OC4(CCC(C)CN4)C(C)C32)C1` (centres undefined): the TGI in [1], in experiment [2], in experiment [3], in experiment [4], in experiment [5] and in [6] was greater than 100 µM each time. In addition, the TGI in experiment [7], in experiment [8], in [9] and in experiment [10] was greater than 100 µM each time.

As for `O=C1/C(=C/c2ccc([N+](=O)[O-])s2)Oc2ccc(Br)cc21`, the GI50 in experiment [1] is 0.376 µM; in experiment [2] it was 1.16 µM; in experiment [3], 0.202 µM; in experiment [4] it was 1 µM; in experiment [5], 0.423 µM; in [6], 0.549 µM. For the same compound, the GI50 was 0.256 µM in [7], 0.212 µM in experiment [8], 0.268 µM in [9] and 0.211 µM in experiment [10]. For the same compound, the TGI in experiment [1] is 1.68 µM; in experiment [2], 9.42 µM; in experiment [3] it was 0.41 µM; in [4] it was 4.3 µM; in [5] it was 1.9 µM; in [6], 2.22 µM. For the same compound, the TGI turned out to be 0.684 µM in experiment [7], 0.517 µM in [8], 0.805 µM in experiment [9] and 0.482 µM in experiment [10].

In the case of `CN(C)Cc1nsc(N(C)C)n1`, the TGI in experiment [1], in experiment [2], in experiment [3], in experiment [4], in experiment [5] and in [6] was greater than 100 µM throughout. Further, the TGI in [7], in experiment [8], in experiment [9] and in experiment [10] was greater than 100 µM each time.

On to `Nc1ncnc2c1ncn2C1OC(F)(COS(N)(=O)=O)C(O)C1O` (centres undefined), for which the GI50 in [1], in experiment [2], in experiment [3], in experiment [4], in experiment [5] and in [6] was greater than 100 µM in each case. The GI50 in experiment [7], in [8], in experiment [9] and in experiment [10] was greater than 100 µM throughout. Further, the TGI in [1], in experiment [2], in [3], in [4], in experiment [5] and in experiment [6] was greater than 100 µM throughout. The TGI in experiment [7], in experiment [8], in experiment [9] and in [10] was greater than 100 µM each time.

As for `CC12CC(Br)(Br)C(=O)C3C1CCCC32`, the TGI was 36.5 µM in experiment [1]; 6.05 µM in experiment [2]; 5.12 µM in experiment [3]; 28.5 µM in experiment [4]; 10.1 µM in experiment [5]; 16.3 µM in experiment [6]. For the same compound, the TGI in experiment [7] was determined as 35.1 µM; in experiment [8] it was 23 µM; in [9], 17.5 µM; in experiment [10] it was 25.9 µM.

In the case of `C(#Cc1ccccc1C#Cc1cnccn1)c1cnccn1`, the GI50 in [1] was 34.5 µM; in experiment [2] it was 12.5 µM; in [3] it was 27.8 µM; in experiment [4], 26.3 µM; in experiment [5], 19.3 µM; in experiment [6], 21.9 µM. Also, the GI50 in experiment [7] is 17.3 µM; in experiment [8] it was 27.8 µM; in experiment [9], 16.9 µM; in experiment [10], 48 µM. Besides, the TGI was greater than 86.3 µM in [1]; 51.5 µM in [2]; greater than 100 µM in [3]; 85.8 µM in [4]; 48.9 µM in experiment [5]; 57.3 µM in experiment [6]. In addition, the TGI in experiment [7] was 55.3 µM; in [8], greater than 100 µM; in [9], 35.9 µM; in [10], greater than 100 µM.

For `CCCCCCCCCCCCNCCCc1ccccc1`, the GI50 in experiment [1] is 1.78 µM; in experiment [2] it was 1.79 µM; in [3], 1.78 µM; in experiment [4] it was 2.07 µM; in [5], 1.76 µM; in experiment [6] it was 1.9 µM. In addition, the GI50 in [7] is 1.87 µM; in experiment [8], 1.89 µM; in experiment [9] it was 1.73 µM; in experiment [10] it was 1.53 µM. Also, the TGI amounted to 3.35 µM in experiment [1]; 3.44 µM in [2]; 3.17 µM in experiment [3]; 3.7 µM in experiment [4]; 3.25 µM in experiment [5]; 3.65 µM in experiment [6]. Besides, the TGI in [7] amounted to 3.85 µM; in experiment [8], 3.32 µM; in experiment [9] it was 3.11 µM; in experiment [10] it was 2.86 µM.

Consider `CCOC(=O)C(c1ccsc1)P(=O)(OCC)OCC` (centres undefined), for which the TGI in experiment [1] is 55.8 µM; in experiment [2], 27.9 µM; in [3] it was 25.7 µM; in [4] it was 52 µM; in experiment [5], 26.3 µM; in experiment [6] it was 36.7 µM. Also, the TGI in experiment [7] was found to be 69.6 µM; in experiment [8], 30.2 µM; in experiment [9], 29.4 µM; in [10], 45.4 µM.

As for `CCCCCCCCCCCCNC(=S)OCCCC`, the TGI in [1], in [2], in experiment [3], in [4], in experiment [5] and in [6] was greater than 100 µM in each case. Moreover, the TGI in experiment [7], in [8], in [9] and in experiment [10] was greater than 100 µM throughout.

With `O=C(O)C(Cc1ccc(O)cc1)N=Cc1nc(-c2ccccc2)oc1O` (centres undefined), the TGI in experiment [1], in experiment [2], in experiment [3], in [4], in experiment [5] and in experiment [6] was greater than 100 µM throughout. Moreover, the TGI in experiment [7], in [8], in experiment [9] and in [10] was greater than 100 µM each time.

Turning to `COc1cccc2c1C(=O)c1c(O)c3c(c(O)c1C2=O)C[C@@](O)(C(=O)CO)C[C@@H]3OC1CC2C(OCN2CN2COC3C(C)OC(O[C@H]4C[C@](O)(C(=O)CO)Cc5c(O)c6c(c(O)c54)C(=O)c4c(OC)cccc4C6=O)CC32)C(C)O1` (some centres undefined), the GI50 in experiment [1] is 0.0056 µM; in experiment [2] it was 0.000878 µM; in experiment [3], 0.00564 µM; in experiment [4], 0.00609 µM; in experiment [5], 0.0067 µM; in [6] it was 0.00477 µM. In addition, the GI50 is 0.00258 µM in experiment [7], 0.0112 µM in [8], 0.0143 µM in experiment [9] and 0.00291 µM in [10]. The TGI in [2] is 0.00708 µM; in experiment [3], greater than 0.39 µM; in [4], 0.103 µM; in experiment [5], 0.0405 µM; in experiment [6], 0.0316 µM; in [7], 0.0469 µM. The TGI in experiment [8] amounted to 0.0638 µM; in [9], 0.0492 µM; in experiment [10] it was 0.0979 µM.
